Key:
human mGlu3 = target: T1, human mGlu3 (Homo sapiens, UniProt Q14832); assay: Human mGlu3 GIRK thallium flux assay; assay type: cell-based; conditions: HEK293 cells, triplicate assays (14g duplicate)
T1 construct: expressed in transfected cells
Description: (§1) Cell Line Generation and Thallium Flux Assays. The general procedure for the preparation of human mGlu2 and mGlu3 was described previously, [56] with minor modifications in this work. The cloning sites were NheI/NotI for both receptors. HEK GIRK cells, generously provided by Lily Jan (University of California San Francisco, San Francisco, CA), were transfected with 24 μg of DNA using Fugene6 (Promega), stable transfectants were selected with 1 μg/mL puromycin dihydrochloride (Sigma-Aldrich, St. Louis, MO), and polyclonal human mGlu2 GIRK and mGlu3 GIRK cell lines were established. Cells were maintained following selection in 45% DMEM, 45% Ham's F12, 10% FBS, 100 units/mL penicillin/streptomycin, 20 mM HEPES, pH 7.3, 1 mM sodium pyruvate, 2 mM glutamine, 700 μg/mL G418 (Mediatech, Inc., Herndon, VA), and […] puromycin (growth media) at 37 °C in the presence of 5% CO2. All cell culture reagents were purchased from Invitrogen Corp. (Carlsbad, CA) unless otherwise noted.
(§2) Human mGlu2 and mGlu3 Thallium Flux in Vitro Assays. Potencies of these NAMs at both mGlu2 and mGlu3 were investigated by thallium flux through GIRK channels, which was disclosed in detail as well as described in our previous work. In particular, cells were plated into 384-well, black-walled, clear-bottomed poly(D-lysine_-coated plates at a density of 15 000 cells per well in 20 μL of DMEM containing 10% dialyzed FBS, 20 mM HEPES, and 100 units/mL penicillin/streptomycin (assay media). Plated cells were incubated overnight at 37 °C in the presence of 5% CO2. The next day, the medium was exchanged from the cells to assay buffer [Hanks' balanced salt solution (Invitrogen) containing 20 mM HEPES, pH 7.3] using an ELX405 microplate washer (BioTek), leaving 20 μL per well, followed by the addition of 20 μL per well of FluoZin2-AM (330 nM final concentration) indicator dye (Invitrogen; prepared as a stock in DMSO and mixed in a 1:1 ratio with Pluronic acid F-127) in assay buffer. Cells were incubated for 1 h at room temperature, and the dye was exchanged to assay buffer using an ELX405, leaving 20 μL per well. For concentration-response curve experiments, compounds were serially diluted 1:3 into 10 point concentration-response curves and were transferred to daughter plates using an Echo acoustic plate reformatter (Labcyte, Sunnyvale, CA). Test compounds were diluted to 2 times their final desired concentration in assay buffer (0.3% DMSO final concentration). Agonists were diluted in thallium buffer [125 mM sodium bicarbonate (added fresh the morning of the experiment), 1 mM magnesium sulfate, 1.8 mM calcium sulfate, 5 mM glucose, 12 mM thallium sulfate, and 10 mM HEPES, pH 7.3] at 5 times the final concentration to be assayed. Cell plates and compound plates were loaded onto a kinetic imaging plate reader (FDSS 6000 or 7000; Hamamatsu Corporation, Bridgewater, NJ). Appropriate baseline readings were taken (10 images at 1 Hz; excitation, 470 ± 20 nm; emission, 540 ± 30 nm), and test compounds were added in a 20 μL volume and incubated for approximately 1 h at room temperature before the addition of 10 μL of thallium buffer with or without an EC80 concentration of the agonist glutamate for affinity evaluation experiments or with a full concentration-response of glutamate for Schild analysis experiments. After the addition of agonist, data were collected for approximately an additional 2.5 min. Data were analyzed using Excel (Microsoft Corp, Redmond, WA). The slope of the fluorescence increase beginning 5 s after thallium/agonist addition and ending 15 s after thallium/agonist addition was calculated, corrected to vehicle and maximal agonist control slope values, and plotted using either XLfit (ID Business Solutions Ltd.) or Prism software (GraphPad Software, San Diego, CA) to generate concentration-response curves. Potencies were calculated from fits using a four-point parameter logistic equation.

human mGlu2 = target: T2, human mGlu2 (Homo sapiens, UniProt Q14416); assay: Human mGlu2 GIRK thallium flux assay; assay type: cell-based; conditions: HEK293 cells, EC80 glutamate, triplicate assays (14g duplicate)
T2 construct: expressed in transfected cells
Description: as §1, §2

mGlu2 [1] = target: T3, mGlu2 (Rattus norvegicus, UniProt P31421); assay: In vitro autoradiography in rat brain sections; assay type: binding; set-up: from tissue; host or cells: Sprague-Dawley rat brain sections; conditions: preincubated with unlabeled QCA, 14b or 14a at 10 µM
Description: Sagittal rat brain slices were prepared into 20 μm sections with a cryostat (HM560; Carl Zeiss, Oberkochen, Germany), mounted on air plasma spray-coated glass slides, and stored at -80 °C before used for experiments. The sections were preincubated for 15 min in a glass tank containing 200 mL of Tris·HCl buffer (50 mM, pH 7.4) consisting of 2 mM of MgCl2 and 1.2 mM of CaCl2 at room temperature. After preincubation, the sections were incubated in a fresh buffer containing [^11C]14a or [^11C]14b (250 µCi in 200 mL buffer; molar activity 2.7 Ci/µmol of [^11C]14a and 2.5 Ci/µmol of [^11C]14b, respectively) in the glass tank for 30 min at room temperature. For blocking studies, non-radioactive 14a or 14b (10 μM) and QCA (10 μM) were chosen to determine the specificity of radiotracers for binding mGlu2. Six serial brain sections were used for each conditions. After incubation, brain sections were washed with cold buffer (3 × 5 min), immersed in cold distilled water, and then dried with cold air. The sections were placed in contact with imaging plates (BAS-MS2025, FUJIFILM, Tokyo, Japan). Autoradiograms were obtained and photostimulated luminescence (PSL) values in the ROIs were measured using a Bio-Imaging Analyzer System (BAS5000, FUJIFILM).

mGlu2 [2] = target: T3, mGlu2; assay: Dynamic PET imaging in rat brain; assay type: in vivo, SD rats; set-up: from tissue; host or cells: brain of living SD rats
Description: As we previously reported, PET scans were carried out by an Inveon PET scanner (Siemens Medical Solutions, Knoxville, TN, USA). During the scan, SD rats were anesthetized by oxygen mixed with 1-2% (v/v) isoflurane and kept body temperature at […] by a commercially available circulation system (T/Pump TP401, Gaymar Industries, Orchard Park, NY). A 24-gauge catheter was inserted into the tail vein to facilitate a bolus injection. The radiotracer [^11C]14a or [^11C]14b (ca. 1 mCi / 150-200 μL) was injected into the rat via the preinstalled catheter, and the dynamic acquisition of PET signals in rat brain was started at the same time and lasted for 60 min in 3D list mode. For pretreatment studies, 14a (1 mg/kg for [^11C]14a for self-blocking study in Figure S2; 3 mg/kg for [^11C]14b for blocking study in Figure S12C) or 14b (1 mg/kg for [^11C]14b for self-blocking study in Figure S12B), formulated in 300 μL of saline containing 10% ethanol and 5% Tween 80, was injected at 30 min via the tail vein catheter prior to the injection of [^11C]14a or [^11C]14b. The dynamic emission data were reconstructed by filtered back projection using Hanning's filter with a Nyquist cutoff of 0.5 cycle/pixel into 33 frames (10 s × twelve frames, 20 s × three frames, 30 s × three frames, 60 s × three frames, 150 s × three frames, and 300 s × nine frames). The TACs of [^11C]14a or [^11C]14b were analyzed from volumes of interest in the striatum, hippocampus, cortex, thalamus, pons and cerebellum normalized to a rat brain MRI template using PMOD software (version 3.4; PMOD technology, Zurich, Switzerland). The radioactivity was decay-corrected to the injection time and expressed as the standardized uptake value (SUV) which equals to (radioactivity per milliliter of tissue per injected radioactivity) × (gram of body weight). To obtain non-displaceable binding potential (BPND), simplified reference tissue model (SRTM), [54] was carried out on the basis of kinetic analysis using PMOD software. We acquired BP-parametric images using kinetic modeling without masking. Respective TACs in receptor-rich or -poor region were loaded for production of BP-map with default setting. Representative parametric images scaled with BPND were reconstructed by PMOD software using TACs in mGlu2-enriched and reference regions. Pons was selected as the reference region for mGlu2 (the lowest and consistent brain uptake and washout kinetics between baseline and blocking conditions). It should be noted that while there is a low-level expression of mGlu2 in the pons, it is not without existence. A reference region should be a region devoid of the target, but with similar tracer transport or diffusion to the other regions of interest with expression of the target. Therefore, there are some limitations when using pons as the reference region. For example, the partial volume effect in PET likely leads to spillover of activity from nearby higher uptake regions into the pons, artificially increasing the time-activity curve in the pons.

mGlu2 [3] = conditions: cited from earlier work

T3 sequence (P31421 19-872): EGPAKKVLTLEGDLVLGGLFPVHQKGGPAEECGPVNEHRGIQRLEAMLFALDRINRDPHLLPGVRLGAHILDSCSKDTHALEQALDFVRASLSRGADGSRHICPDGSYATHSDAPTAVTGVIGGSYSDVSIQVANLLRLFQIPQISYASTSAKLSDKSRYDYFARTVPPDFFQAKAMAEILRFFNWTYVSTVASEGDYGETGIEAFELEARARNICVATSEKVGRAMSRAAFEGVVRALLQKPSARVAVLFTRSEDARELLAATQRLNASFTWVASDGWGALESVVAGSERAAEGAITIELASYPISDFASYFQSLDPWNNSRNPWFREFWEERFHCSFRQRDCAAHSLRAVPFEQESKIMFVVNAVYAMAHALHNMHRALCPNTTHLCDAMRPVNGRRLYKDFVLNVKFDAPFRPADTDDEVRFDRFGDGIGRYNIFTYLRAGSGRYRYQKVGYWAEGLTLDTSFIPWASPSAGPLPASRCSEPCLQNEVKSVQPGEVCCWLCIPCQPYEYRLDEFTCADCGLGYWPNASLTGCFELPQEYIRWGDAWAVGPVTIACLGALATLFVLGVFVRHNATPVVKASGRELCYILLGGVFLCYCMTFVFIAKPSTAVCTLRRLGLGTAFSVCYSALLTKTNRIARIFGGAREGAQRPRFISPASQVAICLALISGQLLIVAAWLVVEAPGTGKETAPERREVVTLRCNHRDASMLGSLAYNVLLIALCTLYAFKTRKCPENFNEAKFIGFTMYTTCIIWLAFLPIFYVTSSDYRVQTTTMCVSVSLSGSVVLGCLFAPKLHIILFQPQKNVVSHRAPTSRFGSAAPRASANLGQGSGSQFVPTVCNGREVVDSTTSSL
T2 sequence (Q14416 19-872): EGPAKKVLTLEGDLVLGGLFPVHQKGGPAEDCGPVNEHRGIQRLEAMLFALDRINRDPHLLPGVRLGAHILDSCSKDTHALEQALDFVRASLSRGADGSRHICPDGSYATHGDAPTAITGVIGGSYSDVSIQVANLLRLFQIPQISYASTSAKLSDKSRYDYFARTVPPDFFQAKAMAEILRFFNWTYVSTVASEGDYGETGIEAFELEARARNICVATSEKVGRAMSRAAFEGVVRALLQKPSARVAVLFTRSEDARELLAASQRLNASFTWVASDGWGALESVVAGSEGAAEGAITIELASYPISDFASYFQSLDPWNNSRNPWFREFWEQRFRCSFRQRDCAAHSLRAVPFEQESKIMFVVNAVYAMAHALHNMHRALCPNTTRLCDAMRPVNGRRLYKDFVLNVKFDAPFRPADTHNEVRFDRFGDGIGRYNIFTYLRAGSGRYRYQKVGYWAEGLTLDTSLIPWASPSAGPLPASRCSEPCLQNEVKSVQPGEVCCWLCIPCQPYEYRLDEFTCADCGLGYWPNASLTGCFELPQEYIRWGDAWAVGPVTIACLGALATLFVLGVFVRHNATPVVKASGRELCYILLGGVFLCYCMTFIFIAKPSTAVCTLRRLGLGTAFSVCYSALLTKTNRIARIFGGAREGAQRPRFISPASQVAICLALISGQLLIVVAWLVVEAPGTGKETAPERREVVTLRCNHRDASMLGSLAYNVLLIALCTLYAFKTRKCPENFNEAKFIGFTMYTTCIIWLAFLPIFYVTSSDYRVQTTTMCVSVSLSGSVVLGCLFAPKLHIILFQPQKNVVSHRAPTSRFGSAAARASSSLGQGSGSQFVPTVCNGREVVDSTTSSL
T1 sequence (Q14832 23-879): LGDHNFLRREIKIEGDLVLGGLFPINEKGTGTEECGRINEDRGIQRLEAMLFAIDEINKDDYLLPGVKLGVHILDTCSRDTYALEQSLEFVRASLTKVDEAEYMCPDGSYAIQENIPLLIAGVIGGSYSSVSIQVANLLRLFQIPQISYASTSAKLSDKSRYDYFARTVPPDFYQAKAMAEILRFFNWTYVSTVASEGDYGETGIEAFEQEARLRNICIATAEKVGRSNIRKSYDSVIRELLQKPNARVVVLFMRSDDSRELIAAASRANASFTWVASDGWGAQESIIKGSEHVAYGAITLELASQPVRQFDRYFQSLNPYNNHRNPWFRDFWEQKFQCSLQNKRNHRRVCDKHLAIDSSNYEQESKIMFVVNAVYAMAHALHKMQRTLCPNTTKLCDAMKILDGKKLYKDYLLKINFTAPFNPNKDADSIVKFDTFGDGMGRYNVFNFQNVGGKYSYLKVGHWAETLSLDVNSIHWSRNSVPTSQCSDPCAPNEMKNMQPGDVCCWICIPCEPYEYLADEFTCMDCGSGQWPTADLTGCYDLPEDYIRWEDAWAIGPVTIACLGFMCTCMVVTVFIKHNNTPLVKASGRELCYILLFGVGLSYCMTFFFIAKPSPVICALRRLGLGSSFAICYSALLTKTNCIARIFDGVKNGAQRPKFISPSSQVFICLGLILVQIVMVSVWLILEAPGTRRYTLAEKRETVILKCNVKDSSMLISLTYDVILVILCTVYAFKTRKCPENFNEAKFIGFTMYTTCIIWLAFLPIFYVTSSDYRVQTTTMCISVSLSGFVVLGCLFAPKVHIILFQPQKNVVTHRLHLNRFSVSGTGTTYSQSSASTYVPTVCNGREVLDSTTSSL

IC50 (human mGlu3) [µM] | IC50 (human mGlu2) [nM] | Compound | IC50 (mGlu2 [3]) [nM] | other results
> 10 | 39 | COc1ccc(-c2cc(C(N)=O)nc3c2CCN(Cc2ccnc(OC)c2)C3)c(F)c1 [14a, 4-(2-fluoro-4-methoxyphenyl)-7-((2-methoxypyridin-4-yl)methyl)-5,6,7,8-tetrahydro-1,7-naphthyridine-2-carboxamide] | – | –
> 10 | 129 | COc1cc(CN2CCc3c(-c4ccc(C)cc4F)cc(C(N)=O)nc3C2)ccn1 [14c, 4-(2-fluoro-4-methyphenyl)-7-((2-methoxypyridin-4-yl)methyl)-5,6,7,8-tetrahydro-1,7-naphthyridine-2-carboxamide] | – | –
> 10 | 39 | COc1cc(CN2CCc3c(-c4ccc(F)cc4OC)cc(C(N)=O)nc3C2)ccn1 [14d, 4-(4-fluoro-2-methoxyphenyl)-7-((2-methoxypyridin-4-yl)methyl)-5,6,7,8-tetrahydro-1,7-naphthyridine-2-carboxamide] | – | –
> 10 | 106 | COc1ncc(CN2CCc3c(-c4ccc(C)cc4F)cc(C(N)=O)nc3C2)cn1 [14e, 4-(2-fluoro-4-methyphenyl)-7-((2-methoxypyrimidin-5-yl)methyl)-5,6,7,8-tetrahydro-1,7-naphthyridine-2-carboxamide] | – | –
> 10 | 318 | COc1ccc(-c2cc(C(N)=O)nc3c2CCN(Cc2cnc(OC)nc2)C3)c(F)c1 [14f, 4-(2-fluoro-4-methoxyphenyl)-7-((2-methoxypyrimidin-5-yl)methyl)-5,6,7,8-tetrahydro-1,7-naphthyridine-2-carboxamide] | – | –
> 30 | 87 | COc1cc(CN2CCc3c(-c4ccc(F)cc4Cl)cc(C(N)=O)nc3C2)ccn1 [14g] | – | –
– | – | COc1cc(CN2CCc3c(-c4ccc(O[11CH3])cc4F)cc(C(N)=O)nc3C2)ccn1 [[^11C]14a, 4-(2-fluoro-4-(methoxy-^11C)phenyl)-7-((2-methoxy-pyridin-4-yl)methyl)-5,6,7,8-tetrahydro-1,7-naphthyridine-2-carboxamide] | – | Decrease of region-to-pons ratios under blocking (mGlu2 [1]): 17-54%; Peak uptake in the striatum (mGlu2 [2]; SD rats, at 2.5 min): 1.7 SUV; Time of peak radioactivity in brain regions (mGlu2 [2]; SD rats, i.v.): 2.5 min; In vivo specificity (mGlu2 [2]; pretreatment with 14a (1 mg/kg)): low-to-modest
– | – | [11CH3]Oc1ccc(C2CCN(c3ccn(CC4CC4)c(=O)c3C#N)CC2)cc1 [[^11C]CMDC, 1-(cyclopropylmethyl)-4-(4-[^11C]methoxyphenyl)-piperidin-1-yl-2-oxo-1,2-dihydropyridine-3-carbonitrile] | 98 | –
– | – | [11CH3]Oc1cccc(CC[C@@](N)(C(=O)O)[C@H]2C[C@@H]2C(=O)O)c1 [[^11C]CMG] | 94 | –
– | – | [11CH3]Oc1c(F)ccc(F)c1C1CCN(c2ccn3c(CC4CC4)nnc3c2Cl)CC1 [[^11C]JNJ42491293] | 7.5 | –

Reference: article PMC7532674, “Synthesis and preliminary studies of ^11C-labeled tetrahydro-1,7-naphthyridine-2-carboxamides for PET imaging of metabotropic glutamate receptor 2” (Theranostics, 2020)
